Results as given in the supplement of paper PMC10307832.

Columns and labels:
Experiment in all cases: relative viability (nuclei count vs DMSO), 5 days (fraction); higher = more cells survive
[1] = compound: CN(C)C[C@@H]1CCn2cc(c3ccccc32)C2=C(C(=O)NC2=O)c2cn(c3ccccc23)CCO1 [Ruboxistaurin] + CS(=O)(=O)CCNCc1ccc(-c2ccc3ncnc(Nc4ccc(OCc5cccc(F)c5)c(Cl)c4)c3c2)o1 [Lapatinib] (partner 2 µM)
How it was run: (§1)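 Values are medians from duplicate plates. Each reflects relative viability, defined as the nuclei count of treated wells over that of vehicle wells. Lung cancer cell lines in 1536-well plates were pin-tool dosed one day after seeding with one drug alone or with a fixed anchor-drug dose plus five library-drug doses (not always all listed) in √10 steps, then fixed, stained and imaged at 4× after 5 days.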

[2] = compound: CN(C)C[C@@H]1CCn2cc(c3ccccc32)C2=C(C(=O)NC2=O)c2cn(c3ccccc23)CCO1 [Ruboxistaurin] + Nc1nc2[nH]cc(CCc3ccc(C(=O)N[C@@H](CCC(=O)O)C(=O)O)cc3)c2c(=O)[nH]1 [Pemetrexed] (partner 0.2 µM)
How it was run: as §1

[3] = compound: CN(C)C[C@@H]1CCn2cc(c3ccccc32)C2=C(C(=O)NC2=O)c2cn(c3ccccc23)CCO1 [Ruboxistaurin] + CC(C)C[C@H](NC(=O)[C@H](Cc1ccccc1)NC(=O)c1cnccn1)B(O)O [Bortezomib] (partner 0.002 µM)
How it was run: as §1

[4] = compound: CN(C)C[C@@H]1CCn2cc(c3ccccc32)C2=C(C(=O)NC2=O)c2cn(c3ccccc23)CCO1 [Ruboxistaurin] + CC(=O)c1c(C)c2cnc(Nc3ccc(N4CCNCC4)cn3)nc2n(C2CCCC2)c1=O [Palbociclib] (partner 0.5 µM)
How it was run: as §1

[5] = compound: CN(C)C[C@@H]1CCn2cc(c3ccccc32)C2=C(C(=O)NC2=O)c2cn(c3ccccc23)CCO1 [Ruboxistaurin] + CS(=O)(=O)N1CCN(Cc2cc3nc(-c4cccc5[nH]ncc45)nc(N4CCOCC4)c3s2)CC1 [Pictilisib] (partner 1 µM)
How it was run: as §1

Row | Cell Line | relative viability ([1]; first compound 0.08 µM) | relative viability ([1]; first compound 0.8 µM) | relative viability ([1]; first compound 2.53 µM) | relative viability ([1]; first compound 8 µM) | relative viability ([2]; first compound 0.08 µM) | relative viability ([2]; first compound 0.8 µM) | relative viability ([2]; first compound 2.53 µM) | relative viability ([2]; first compound 8 µM) | relative viability ([3]; first compound 0.08 µM) | relative viability ([3]; first compound 0.8 µM) | relative viability ([3]; first compound 2.53 µM) | relative viability ([3]; first compound 8 µM) | relative viability ([4]; first compound 0.08 µM) | relative viability ([4]; first compound 0.8 µM) | relative viability ([4]; first compound 2.53 µM) | relative viability ([4]; first compound 8 µM) | relative viability ([5]; first compound 0.08 µM) | relative viability ([5]; first compound 0.8 µM) | relative viability ([5]; first compound 2.53 µM) | relative viability ([5]; first compound 8 µM)
1 | NCI-H2087 | 0.952 | 1.02 | 1.25 | 1.1 | 0.641 | 0.679 | 0.662 | 0.693 | 0.794 | 0.615 | 0.798 | 1.04 | 0.28 | 0.253 | 0.285 | 0.291 | 0.908 | 0.68 | 0.837 | 0.57
2 | NCI-H2126 | 0.751 | 0.703 | 0.774 | 0.73 | 0.699 | 0.65 | 0.674 | 0.623 | 1.11 | 1.05 | 1.18 | 1.16 | 0.341 | 0.384 | 0.367 | 0.395 | 0.533 | 0.447 | 0.541 | 0.463
3 | NCI-H2228 | 1.51 | 1.1 | 1.14 | 0.911 | 0.387 | 0.335 | 0.337 | 0.322 | 1.33 | 0.708 | 1.08 | 0.941 | 0.845 | 0.631 | 0.863 | 0.693 | 0.431 | 0.358 | 0.345 | 0.335
4 | NCI-H2347 | 1.02 | 0.829 | 0.934 | 0.979 | 0.45 | 0.413 | 0.372 | 0.44 | 1.25 | 1.11 | 0.957 | 1.02 | 0.441 | 0.425 | 0.358 | 0.42 | 0.739 | 0.772 | 0.714 | 0.519
5 | NCI-H2405 | 1.3 | 1.01 | 1.19 | 1.05 | 1.13 | 1.04 | 1.11 | 1.01 | 1.01 | 1.01 | 1 | 0.94 | 0.545 | 0.538 | 0.522 | 0.486 | 0.561 | 0.411 | 0.478 | 0.33
6 | NCI-H3122 | 1.02 | 1.02 | 1 | 1.08 | 0.191 | 0.201 | 0.191 | 0.187 | 1.07 | 0.953 | 1.01 | 1.1 | 0.176 | 0.149 | 0.196 | 0.336 | 0.7 | 0.398 | 0.564 | 0.436
7 | PC-3 [JPC-3] | 0.428 | 0.417 | 0.44 | 0.391 | 1.22 | 1.09 | 1.17 | 1.04 | 0.855 | 0.804 | 0.793 | 0.85 | 0.561 | 0.487 | 0.518 | 0.556 | 0.883 | 0.678 | 0.742 | 0.814
8 | PC-14 | 0.353 | 0.311 | 0.302 | 0.294 | 0.135 | 0.136 | 0.136 | 0.115 | 1.11 | 0.743 | 0.899 | 1.1 | 0.603 | 0.452 | 0.51 | 0.528 | 0.788 | 0.63 | 0.689 | 0.402
9 | RERF-LC-KJ | 0.905 | 0.837 | 0.781 | 0.77 | 0.48 | 0.46 | 0.483 | 0.446 | 1.09 | 0.992 | 1.1 | 0.937 | 1.17 | 0.934 | 1.12 | 0.995 | 0.508 | 0.499 | 0.472 | 0.359
10 | SK-LU-1 | 0.937 | 0.785 | 0.996 | 0.969 | 0.944 | 0.913 | 1.12 | 0.954 | 1.37 | 1.03 | 1.22 | 1.07 | 0.427 | 0.342 | 0.429 | 0.381 | 0.55 | 0.55 | 0.561 | 0.426
11 | SW 1573 | 1.1 | 1.12 | 1.18 | 1.03 | 0.923 | 0.803 | 0.795 | 0.704 | 0.892 | 0.973 | 0.983 | 1.05 | 0.433 | 0.371 | 0.354 | 0.523 | 0.468 | 0.39 | 0.542 | 0.37
12 | UMC-11 | 1.03 | 0.844 | 0.875 | 0.644 | 0.823 | 0.721 | 0.688 | 0.606 | 0.725 | 0.667 | 0.691 | 0.564 | 0.327 | 0.388 | 0.289 | 0.338 | 0.892 | 0.596 | 0.728 | 0.509
